One data set concerns HUVEC. Nature of the data set: MTT assay, cell proliferation. The settings on record: Homo sapiens, 24 h, read-out: IC50, inhibition of cell proliferation. In kind it is cell-based, Human. The essentials:
(§1)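 Viability after a 24 h compound exposure (5 × 10^3 cells/well, 37 °C) was measured by MTT reduction over 3 h with a 570 nm read-out. IC50 values are concentrations that halve proliferation relative to untreated control.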
On the technique in general: Tetrazolium assays rely on reduction of a dye to a coloured formazan, in cell work by metabolically active cells.

Another data set relates to zebrafish embryos. Nature of the data set: Zebrafish toxicity: heart rates. In kind it is in vivo. The following applies: for Heart rates of zebrafish: control 117 beats/min. The protocol:
To investigate the toxicity of these four compounds, the heart rates and the mortality rates of zebrafish embryos were recorded (Table 2 and Table 3). The heart rate of zebrafish in the control group was 117 beats/min.
Using transgenic fli-1: enhanced GFP zebrafish embryos, we investigated the effects of all compounds on angiogenesis. Zebrafish embryos were generated by natural pairwise mating and raised at 28.5 °C in embryo water (0.2 g/L of Instant Ocean Salt in distilled water). At about 6 h post fertilization (hpf), the embryos were sorted in the 6-well plate (six embryos/well), removing dead and unhealthy embryos. Then the embryos were treated with the indicated concentrations of compounds which were added into embryo water. After incubation for 24 or 48 h, the embryos were anesthetized using 0.05% 2-phenoxyethanol in embryo water, quantified and photographed.

Data set [1] relates to transgenic fli-1: enhanced GFP zebrafish embryos. In words: Zebrafish embryo assay: antiangiogenic effects. In kind it is in vivo, zebrafish (Danio rerio). The settings on record: Danio rerio, zebrafish embryos.
The next data set deals with A549. Nature of the data set: MTT assay, cell proliferation. In kind it is cell-based. The settings on record: Homo sapiens, 24 h, read-out: IC50, inhibition of cell proliferation. In a few lines:
as §1

The next data set relates to K562. In words: MTT assay, cell proliferation. Format: cell-based. The following applies: Homo sapiens, 24 h, read-out: IC50, inhibition of cell proliferation. The essentials:
(§2)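 Treatment lasted 24 h at 5 × 10^3 cells per well. MTT incubation ran 3 h, formazan was dissolved in DMSO and A570 was recorded. Percent growth against untreated wells gave the IC50 (50% inhibition).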

The subject of the next data set is HCT116. Nature of the data set: MTT assay, cell proliferation. Format: cell-based. The settings on record: Homo sapiens, HCT-116, 24 h, read-out: IC50, inhibition of cell proliferation. In a few lines: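 Cells are seeded at 5 × 10^3 per well and treated with a concentration series for 24 h. MTT is then added for 3 h, the precipitate is solubilised in DMSO and read at 570 nm. K562 grows in RPMI 1640, the other lines in DMEM, all with 10% FBS.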

The subject of the next data set is HeLa. In words: MTT assay, cell proliferation. The following applies: Homo sapiens, 24 h, read-out: IC50, inhibition of cell proliferation. In kind it is cell-based. The essentials:
as §2

The next data set relates to HepG2. In words: MTT assay, cell proliferation. The following applies: Homo sapiens, 24 h, read-out: IC50, inhibition of cell proliferation. Format: cell-based. In a few lines: as §2
A further data set has as its system LO2. Nature of the data set: MTT assay, cytotoxicity. The settings on record: Homo sapiens, L02, 24 h, read-out: IC50, inhibition of cell proliferation. In kind it is cell-based. The essentials: as §2
A further data set concerns HUVECs. In words: Matrigel tube formation assay. Format: cell-based, Human. The protocol: In the later stages of angiogenesis, tube formation of ECs is also an important process. Thus, a Matrigel tube formation assay was applied to assess the ability of HUVECs to form ECs vascular structures which is believed to be significant in new vessel formation.
Figure 4 Effects on the HUVECs tube formation. (I) HUVECs (1 × 10^4 cells) suspended in DMEM containing each compound (0.5 or 1 or 2 μM) were added to the Matrigel. Control was treated with DMEM alone. After incubation for 6 h at 37 °C, capillary networks were photographed and quantified (Olympus CKX41, magnification: 100×); (II) Rates of the HUVECs tube formation. The number of intact tubes was counted in five randomly chosen regions and expressed as the percentage of the control. The results were expressed as mean ±SD. ** p < 0.01; *** p < 0.005 compared with control.
Matrigel was dissolved at 4 °C overnight. Each well of prechilled 96-well plates was coated with 50 μL of Matrigel, incubated and solidified at 37 °C for 45 min. After removing the unsolidified fluid, HUVECs at the density of 1 × 10^4 were cultured in DMEM containing the indicated concentrations of compounds for 6 h. Controls were treated with the DMEM alone. Images were digitally captured and quantitatively analyzed (Olympus). The numbers and line lengths of the circular tubules formed by the cells were calculated manually. The values were observed from five randomly selected fields.

Where two headings read alike, the source gives them in different places. Where only a bound is given, the exact number is not on record here.

Take `CC(=O)Nc1ccc(NC(=O)/C(C)=C\CC23OC(C)(C)C4CC(C=C5C(=O)c6c(O)c7c(c(CC8OC8(C)C)c6OC542)OC(C)(CCC2OC2(C)C)C=C7)C3=O)cc1` (stereo not drawn) [Compound 36, (32,33),(37,38)-Diepoxy-N-(4-acetamidophenyl) gambogamide]: the IC50 in the data set with HUVEC was 2.45 ± 0.09 µM; in the data set on A549, 1.29 ± 0.14 µM; in the data set with K562, 0.28 ± 0.03 µM; in the data set with HCT116, 0.56 ± 0.01 µM; in the data set on HeLa, 4.96 ± 0.88 µM; with HepG2 it was 1.85 ± 0.08 µM. In addition, the IC50 in the data set with LO2 was determined as 1.62 ± 0.08 µM. Moreover, the “heart rates relative to control group” value in the data set with zebrafish embryos (2.5 µM and 10 µM, zebrafish) was “about half of the control group”. In addition, the “Heart rates of zebrafish” value stood at 60 ± 5.2 beats/min in the data set with zebrafish embryos (2.5 μM) and 60 ± 2.86 beats/min in the data set with zebrafish embryos (10 μM). Also, the inhibition in vivo at 1 µM in data set [1] (read-out: antiangiogenic rates) was 25 to 50%; in data set [1] (vs vehicle (0.05% DMSO), read-out: Anti-angiogenic phenotype), 25 to 50%. The inhibition in vivo at 2.5 µM in data set [1] (2.5 μM, vs vehicle (0.05% DMSO), read-out: Anti-angiogenic phenotype) lay within 50 to 75%. The inhibition in vivo at 10 µM in [1] (10 μM, vs vehicle (0.05% DMSO), read-out: Anti-angiogenic phenotype) is more than 75%. For the same compound, the “improvement in the inhibition of tube formation compared with GA” value in the data set on HUVECs (0.5 μM) is 2 fold. In addition, the inhibition at 0.5 µM with HUVECs (Homo sapiens, HUVEC, 0.5 μM, 6 h, vs control, read-out: inhibitory rates of tube formation) worked out at 56.5%. In addition, the inhibition at 2 µM in the data set with HUVECs (Homo sapiens, HUVEC, 2 μM, read-out: tube formation inhibitory rate) worked out at 100%. In the data set on HUVECs (concentrations exceeding 1 μM), the “inhibition of tubular structures” value was “completely inhibit tubular structures”.

The record behind these values is PMC6268492, “Synthesis and Antiangiogenic Activity of Novel Gambogic Acid Derivatives” (Molecules, 2012).
